Key:
[1] = test system: MCF7 (breast cancer cell line, ATCC, HTB-22); assay: MTT assay, wild-type p53 breast cancer cells MCF-7 (Table 11); format: cell-based, human; conditions: Homo sapiens, MCF7; 72 h of incubation, wild-type p53, second determination
Experimental: (§1) Thus, the ability of the selected compounds to exert cytotoxic activity toward cell lines harboring mutant p53 was examined. Compounds displaying a high selectivity index (Table 6) were selected for the analysis of their activity toward ovarian and breast cancer cells with wild-type p53 (A2780, MCF-7) and mutant p53 (SKOV-3, T47D).
(§2) Cell viability was examined using the MTT [3-(4,5-dimethylthiazol-2-yl)-2,5-diphenyltetrazolium bromide] assay. Cells were seeded in 96-well plates at a density of 3 × 10^3 cells/well and treated for 72 h with the tested compounds in the concentration range of 1–100 µM. Then, MTT (0.5 mg/mL) was added to the medium and cells were further incubated for 2 h at 37 °C. In the next stage, cells were lysed with DMSO and the absorbance of the formazan solution was measured at 550 nm with a plate reader (1420 multilabel counter, Victor, Jügesheim, Germany). The experiment was performed in triplicate. Values are expressed as the mean ± SD of at least three independent experiments. Cisplatin was used as a positive control.
(§3) Compounds 48, 62, 134, 138 and 140 were further examined toward MCF7 (breast cancer cell line, ATCC, HTB-22), T47D (breast cancer cell line, DSMZ ACC 739), A2780 (ovarian carcinoma cell line, ECACC, 93112519), and SKOV3 (ovarian carcinoma cell line, ATCC, HTB-77) cells. Cells were grown in Dulbecco’s Modified Eagle Medium (DMEM) supplemented with 10% fetal bovine serum (Thermo Fisher Scientific).

HCT-116 (colon cancer) = assay: MTT cell viability assay, HCT-116; format: cell-based, human; conditions: for IC50: MTT assay, 72 h of incubation; for Selectivity Index (SI) HCT-116: IC50 value toward HaCaT cells/IC50 value toward HCT-116
Outline: (§4)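 HCT-116 and HeLa cells in DMEM/10% FBS exposed 72 h to compounds over 1–100 µM. Viability by MTT (0.5 mg/mL, 2 h, 37 °C), formazan dissolved in DMSO and read at 550 nm; mean ± SD of at least three independent experiments.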

HeLa (cervical cancer) = assay: MTT cell viability assay, HeLa; format: cell-based, human; conditions: for IC50: Homo sapiens, HeLa, MTT assay, 72 h of incubation; for Selectivity Index (SI) HeLa: IC50 value toward HaCaT cells/IC50 value toward HeLa
Outline: as §4

[2] = test system: HaCaT (human keratinocyte cell line); assay: MTT cell viability assay, non-cancerous HaCaT; format: cell-based; conditions: Homo sapiens, HaCaT, 72 h, 72 h of incubation, non-cancerous keratinocytes
Outline: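 Cells in DMEM with 10% FBS, 3 × 10^3 per well, exposed to compounds at 1–100 µM for 72 h at 37 °C. MTT at 0.5 mg/mL for 2 h, formazan dissolved in DMSO and read at 550 nm. Mean ± SD of at least three independent experiments, each in triplicate.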

[3] = test system: SKOV3 (ovarian carcinoma cell line); assay: MTT assay, mutant p53 ovarian cancer cells SKOV-3; format: cell-based; conditions: Homo sapiens, SK-OV-3, 72 h of incubation
Experimental: as §1, §2, §3

MCF-7 cells = assay: Cell cycle analysis by flow cytometry (PI staining) in MCF-7 cells; format: cell-based, human; conditions: 48 h; for G0/G1 phase population of the cell cycle: MCF-7, 10 µM; for sub-G1 population of the cell cycle: MCF-7, 5, 10, 25 µM
Experimental: P53 controls cell proliferation through the regulation of the cell cycle. In order to determine p53-independent cell cycle arrest, the influence of selected compounds on the cell cycle distribution in MCF-7 cells was analyzed. Cells were treated with a concentration range of two selected compounds (140 and 48) for 48 h. Cell cycle distribution was analyzed with flow cytometry. […] Compound 140 at the lower concentration of 10 µM increased the G0/G1 population, whereas at the higher examined concentration of 25 µM, an increase in the G2/M phase of the cell cycle was observed.
Cell cycle distribution was analyzed with flow cytometry analysis with PI staining. MCF-7 cells were treated with compounds 48 and 140 (5, 10, 25 µM) for 48 h. Following treatment, the cells were collected and fixed in cold 70% ethanol for 24 h. The fixed cells were washed with PBS and incubated with 100 µg/mL RNAse (Invitrogen, Germany) and stained with 10 µg/mL PI (Invitrogen, Germany) for 30 min at RT. A total of 10^4 cells were examined with a FACSCalibur cytometer (BD) and data was analyzed with Flowing software (version 2.5).

T47D cells = assay: Apoptosis analysis (Annexin V-PE/7-AAD flow cytometry) in T47D cells; format: cell-based; conditions: T47D (mutant p53), 5, 10 and 25 µM, 72 h
Experimental: Since the examined compounds exerted cytotoxic activity toward cell lines harboring mutant p53, the ability of compounds 140 and 48 to induce apoptosis in T47D cells with mutant p53 was examined. […] Cell death was induced to a similar extent in cells harboring wild-type and mutant p53 (Figure 10).
Levels of apoptosis were measured by flow cytometry using the Annexin V-PE Apoptosis Detection Kit I (BD Biosciences, Belgium) according to the manufacturer’s instructions. Apoptosis was assessed after a 72 h treatment of MCF7 and T47D cells with compounds 48 and 140 in the concentrations of 5, 10 and 25 µM. Proceeding cell treatment, cells were collected, washed with PBS and stained with Annexin V-phycoerythrin (PE) and 7-amino-actinomycin (7-AAD) in Annexin V binding buffer for 15 min at RT in the dark. After staining, cells were diluted in Annexin V binding buffer and analyzed on a BD FACSCalibur flow cytometer (BD Biosciences). At total of 10^4 cells were analyzed from each sample and data were analyzed with Flowing software (version 2.5).

IC50 [1]	IC50 (HCT-116 (colon cancer); Homo sapiens, HCT-116, 72 h)	IC50 (HCT-116 (colon cancer))	IC50 (HeLa (cervical cancer))	IC50 [3]	Structure (SMILES)	Selectivity Index (SI) HCT-116 (HCT-116 (colon cancer))	Selectivity Index (SI) HeLa (HeLa (cervical cancer))	IC50 [2]	G0/G1 phase population of the cell cycle (MCF-7 cells)	G2/M phase population of the cell cycle (MCF-7 cells; MCF-7, 25 µM)	sub-G1 population of the cell cycle (MCF-7 cells)	apoptotic cells (Annexin V-PE) (T47D cells)
6.9 ± 0.1 µM	< 6 µM	5 ± 0.2 µM	8 ± 0.5 µM	6.6 ± 0.1 µM	Cc1cc(S(=O)(=O)N=C2NCCN2Cc2ccc(C(F)(F)F)cc2)c(SCc2nc(N)nc(N3CCN(Cc4ccccc4)CC3)n2)cc1Cl [Compound 140]	4.4	2.7	22 ± 1 µM	increased	increase	concentration-dependent increase	concentration-dependent increase
7.8 ± 0.1 µM	6 ± 0.1 µM	–	25 ± 0.3 µM	8.1 ± 0.1 µM	Cc1cc(S(=O)(=O)N=C2NCCN2Cc2ccccc2)c(SCc2nc(N)nc(N3CCc4ccccc43)n2)cc1Cl [Compound 48]	5.5	1.3	33 ± 1 µM	significant increase	–	concentration-dependent increase	concentration-dependent increase

From publication PMC9267128, “New 2-[(4-Amino-6-N-substituted-1,3,5-triazin-2-yl)methylthio]-N-(imidazolidin-2-ylidene)-4-chloro-5-methylbenzenesulfonamide Derivatives, Design, Synthesis and Anticancer Evaluation” (International Journal of Molecular Sciences, 2022)
